Laboratory results taken from PubChem BioAssay AID1963978 (Molecular Pharmacology Branch, DTP, NCI, 2024).

Test system: 616215-338-R-J1-PDC spheroids with HUVEC/MSC, viability
Assay: Anticancer human tumor 616215-338-R-J1-PDC patient-derived colon adenocarcinoma cell line growth inhibition [PI3K]
Conditions: for IC50: curve of first compound; for viability, T/C: stronger effect = lower value
How it was run: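 Targeted small molecules plus PI3K inhibitors, half-log dose series from Cmax (default top 10 microM), were applied to heterotypic spheroids of cancer cells with HUVEC and MSCs. Viability indicated growth inhibition.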

[1] = second compound 0.00316 µM, first compound 0.0316 µM
[2] = second compound 0.00316 µM, first compound 0.1 µM
[3] = second compound 0.01 µM, first compound 0.0316 µM
[4] = second compound 0.01 µM, first compound 0.1 µM
[5] = second compound 0.0316 µM, first compound 0.0316 µM
[6] = second compound 0.0316 µM, first compound 0.1 µM
[7] = second compound 0.1 µM, first compound 0.0316 µM
[8] = second compound 0.1 µM, first compound 0.1 µM
[9] = second compound 0.316 µM, first compound 0.0316 µM
[10] = second compound 0.316 µM, first compound 0.1 µM
[11] = second compound 1 µM, first compound 0.0316 µM
[12] = second compound 1 µM, first compound 0.1 µM
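Further: spheroids exposed to agents for seven days before the viability read.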

For `CC(C)n1nc(-c2ccc3oc(N)nc3c2)c2c(N)ncnc21` + COc1c(OCCCN2CCOCC2)ccc2c3n(c(=NC(=O)c4cnc(N)nc4)nc12)CCN3, the IC50 (second compound 0.00316 µM) was > 100 nM, the IC50 (second compound 0.01 µM) was > 100 nM and the IC50 (second compound 0.0316 µM) was 80.3 nM. For the same compound, the IC50 (second compound 0.1 µM) was 26.2 nM, the IC50 (second compound 0.316 µM) was < 0.316 nM and the IC50 (second compound 1 µM) was < 0.316 nM. For the same compound, the viability, T/C (second compound 0.00316 µM, first compound 0.000316 µM) was 104%, the viability, T/C (second compound 0.00316 µM, first compound 0.001 µM) was 109% and the viability, T/C (second compound 0.00316 µM, first compound 0.00316 µM) was 97.4%. It also gave a viability, T/C (second compound 0.00316 µM, first compound 0.01 µM) of 105%, a viability, T/C [1] of 116% and a viability, T/C [2] of 65.6%. The viability, T/C (second compound 0.01 µM, first compound 0.000316 µM) was 104%, the viability, T/C (second compound 0.01 µM, first compound 0.001 µM) was 100% and the viability, T/C (second compound 0.01 µM, first compound 0.00316 µM) was 103%. It also gave a viability, T/C (second compound 0.01 µM, first compound 0.01 µM) of 108%, a viability, T/C [3] of 122% and a viability, T/C [4] of 67.2%. For the same compound, the viability, T/C (second compound 0.0316 µM, first compound 0.000316 µM) was 106%, the viability, T/C (second compound 0.0316 µM, first compound 0.001 µM) was 99.2% and the viability, T/C (second compound 0.0316 µM, first compound 0.00316 µM) was 117%. It also gave a viability, T/C (second compound 0.0316 µM, first compound 0.01 µM) of 117%, a viability, T/C [5] of 97.3% and a viability, T/C [6] of 39%. It also gave a viability, T/C (second compound 0.1 µM, first compound 0.000316 µM) of 96.2%, a viability, T/C (second compound 0.1 µM, first compound 0.001 µM) of 102% and a viability, T/C (second compound 0.1 µM, first compound 0.00316 µM) of 88.9%. The viability, T/C (second compound 0.1 µM, first compound 0.01 µM) was 68.7%, the viability, T/C [7] was 47.7% and the viability, T/C [8] was 30.1%. For the same compound, the viability, T/C (second compound 0.316 µM, first compound 0.000316 µM) was 37.9%, the viability, T/C (second compound 0.316 µM, first compound 0.001 µM) was 42.1% and the viability, T/C (second compound 0.316 µM, first compound 0.00316 µM) was 34.9%. For the same compound, the viability, T/C (second compound 0.316 µM, first compound 0.01 µM) was 45.2%, the viability, T/C [9] was 35.5% and the viability, T/C [10] was 22.1%. For the same compound, the viability, T/C (second compound 1 µM, first compound 0.000316 µM) was 24.3%, the viability, T/C (second compound 1 µM, first compound 0.001 µM) was 29.1% and the viability, T/C (second compound 1 µM, first compound 0.00316 µM) was 25.1%. It also gave a viability, T/C (second compound 1 µM, first compound 0.01 µM) of 27.8%, a viability, T/C [11] of 30.1% and a viability, T/C [12] of 13.2%.
`CC1(C)CCC(CN2CCN(c3ccc(C(=O)NS(=O)(=O)c4ccc(NCC5CCOCC5)c([N+](=O)[O-])c4)c(Oc4cnc5[nH]ccc5c4)c3)CC2)=C(c2ccc(Cl)cc2)C1` + COc1c(OCCCN2CCOCC2)ccc2c3n(c(=NC(=O)c4cnc(N)nc4)nc12)CCN3 was tested, and the IC50 (second compound 0.00316 µM) was > 10000 nM, the IC50 (second compound 0.01 µM) was > 10000 nM and the IC50 (second compound 0.0316 µM) was > 10000 nM. The IC50 (second compound 0.1 µM) was > 10000 nM, the IC50 (second compound 0.316 µM) was < 31.6 nM and the IC50 (second compound 1 µM) was < 31.6 nM. The viability, T/C [1] was 94%, the viability, T/C [2] was 103% and the viability, T/C (second compound 0.00316 µM, first compound 0.316 µM) was 109%. It also gave a viability, T/C (second compound 0.00316 µM, first compound 1 µM) of 99.7%, a viability, T/C (second compound 0.00316 µM, first compound 3.16 µM) of 88.7% and a viability, T/C (second compound 0.00316 µM, first compound 10 µM) of 95.2%. For the same compound, the viability, T/C [3] was 84.7%, the viability, T/C [4] was 95.1% and the viability, T/C (second compound 0.01 µM, first compound 0.316 µM) was 98.2%. The viability, T/C (second compound 0.01 µM, first compound 1 µM) was 98.7%, the viability, T/C (second compound 0.01 µM, first compound 3.16 µM) was 84.2% and the viability, T/C (second compound 0.01 µM, first compound 10 µM) was 96.8%. For the same compound, the viability, T/C [5] was 96.8%, the viability, T/C [6] was 99.4% and the viability, T/C (second compound 0.0316 µM, first compound 0.316 µM) was 100%. It also gave a viability, T/C (second compound 0.0316 µM, first compound 1 µM) of 102%, a viability, T/C (second compound 0.0316 µM, first compound 3.16 µM) of 93.1% and a viability, T/C (second compound 0.0316 µM, first compound 10 µM) of 109%. The viability, T/C [7] was 96.1%, the viability, T/C [8] was 93.6% and the viability, T/C (second compound 0.1 µM, first compound 0.316 µM) was 107%. The viability, T/C (second compound 0.1 µM, first compound 1 µM) was 87.8%, the viability, T/C (second compound 0.1 µM, first compound 3.16 µM) was 83% and the viability, T/C (second compound 0.1 µM, first compound 10 µM) was 95.2%. It also gave a viability, T/C [9] of 47.4%, a viability, T/C [10] of 41.2% and a viability, T/C (second compound 0.316 µM, first compound 0.316 µM) of 45.5%. The viability, T/C (second compound 0.316 µM, first compound 1 µM) was 42.5%, the viability, T/C (second compound 0.316 µM, first compound 3.16 µM) was 27.6% and the viability, T/C (second compound 0.316 µM, first compound 10 µM) was 33.2%. It also gave a viability, T/C [11] of 24.3%, a viability, T/C [12] of 24.4% and a viability, T/C (second compound 1 µM, first compound 0.316 µM) of 25.5%. The viability, T/C (second compound 1 µM, first compound 1 µM) was 21%, the viability, T/C (second compound 1 µM, first compound 3.16 µM) was 13.2% and the viability, T/C (second compound 1 µM, first compound 10 µM) was 30%.
